Measured values: patent US9409922B2, “Imidazopyridine macrocycles as inhibitors of human immunodeficiency virus replication” (priority 2014, dated 2016)

Tested on: NL-RLuc virus
Experiment: Inhibition of HIV replication: NL-RLuc reporter virus in MT-2 cells, luciferase readout
Type: cell-based
Settings: MT-2 cells infected with NL-RLuc virus, 5 days of incubation, 10% FBS, at least 2 experiments
Text: Inhibition of HIV Replication:
A recombinant NL-RLuc proviral clone was constructed in which a section of the nef gene from NL4-3 was replaced with the Renilla Luciferase gene. This virus is fully infectious and can undergo multiple cycles of replication in cell culture. In addition, the luciferous reporter provides a simple and easy method for quantitating the extent of virus growth and consequently, the antiviral activity of test compounds. The plasmid pNLRLuc contains the proviral NL-Rluc DNA cloned into pUC 18 at the PvuII site. The NL-RLuc virus was prepared by transfection of 293T cells with the plasmid pNLRLuc. Transfections were performed using the LipofectAMINE PLUS kit from Invitrogen (Carlsbad, Calif.) according to the manufacturer and the virus generated was titered in MT-2 cells. For susceptibility analyses, the titrated virus was used to infect MT-2 cells in the presence of compound, and after 5 days of incubation, cells were processed and quantitated for virus growth by the amount of expressed luciferase. Assay media was RPMI 1640 supplemented with 10% heat inactivated fetal bovine serum (FBS), 100 units/ml penicillin G/100 units/ml streptomycin, 10 mM HEPES buffer pH 7.55 and 2 mM L-glutamine. The results from at least 2 experiments were used to calculate the EC50 values. Luciferase was quantitated using the Dual Luciferase kit from Promega (Madison, Wis.). Susceptibility of viruses to compounds was determined by incubation in the presence of serial dilutions of the compound. The 50% effective concentration (EC50) was calculated by using the exponential form of the median effect equation where (Fa)=1/[1+(ED50/drug conc.)^m](Johnson V A, Byington R T. Infectivity Assay. In Techniques in HIV Research. ed. Aldovini A, Walker B D. 71-76. New York: Stockton Press. 1990).

[1] = Human immunodeficiency virus 1, MT2, 120 h

Row | SMILES | EC50 [1] [nM] | EC50 [nM]
1 | C=Cc1c(C)c([C@H](OC(C)(C)C)C(=O)O)c2n3cc(nc13)-c1cccc(c1)-c1cc(F)ccc1O[C@@H](C)CCCCOC1(C)CCN2CC1 [Example 38, (2S)-2-(tert-Butoxy)-2-[(22S)-5-ethenyl-17-fluoro-4,22,28-trimethyl-21,27-dioxa-1,7,34-triazahexacyclo[26.2.2.1^6,^9.1^10,^14.0^2,^7.0^15,^20]tetratriaconta-2,4,6(34),8,10(33),11,13,15(20),16,18-decaen-3-yl]acetic acid] | 93 | –
2 | Cc1c([C@H](OC(C)(C)C)C(=O)O)c2n3cc(nc3c1-c1ccncc1)-c1cccc(c1)-c1cc(F)ccc1O[C@@H](C)CCCCOC1(C)CCN2CC1 [Example 39, (2S)-2-(tert-Butoxy)-2-[(22S)-17-fluoro-4,22,28-trimethyl-5-(pyridin-4-yl)-21,27-dioxa-1,7,34-triazahexacyclo[26.2.2.1^6,^9.1^10,^14.0^2,^7.0^15,^20]tetratriaconta-2,4,6(34),8,10(33),11,13,15(20),16,18-decaen-3-yl]acetic acid] | 12 | –
3 | Cc1c([C@H](OC(C)(C)C)C(=O)O)c2n3cc(nc3c1C)-c1cccc(c1)-c1cc(F)c(F)cc1O[C@@H](C)CCCCOC1(C)CCN2CC1 [Example 41, (2S)-2-(tert-Butoxy)-2-[(22S)-17,18-difluoro-4,5,22,28-tetramethyl-21,27-dioxa-1,7,34-triazahexacyclo[26.2.2.1^6,^9.1^10,^14.0^2,^7.0^15,^20]tetratriaconta-2,4,6(34),8,10(33),11,13,15(20),16,18-decaen-3-yl]acetic acid] | 13 | –
4 | Cc1c([C@H](OC(C)(C)C)C(=O)O)c2n3cc(nc3c1C)-c1cccc(c1)-c1cc(OC(F)(F)F)ccc1O[C@@H](C)CCCCOC1(C)CCN2CC1 [Example 42, (2S)-2-(tert-Butoxy)-2-[(22S)-4,5,22,28-tetramethyl-17-(trifluoromethoxy)-21,27-dioxa-1,7,34-triazahexacyclo[26.2.2.1^6,^9.1^10,^14.0^2,^7.0^15,^20]tetratriaconta-2,4,6(34),8,10(33),11,13,15(20),16,18-decaen-3-yl]acetic acid] | 60 | –
5 | Cc1c([C@H](OC(C)(C)C)C(=O)O)c2n3cc(nc3c1C)-c1cccc(c1)-c1c(F)cc(F)cc1O[C@@H](C)CCCCOC1(C)CCN2CC1 [Example 43, (2S)-2-(tert-Butoxy)-2-[(22S)-16,18-difluoro-4,5,22,28-tetramethyl-21,27-dioxa-1,7,34-triazahexacyclo[26.2.2.1^6,^9.1^10,^14.0^2,^7.0^15,^20]tetratriaconta-2,4,6(34),8,10(33),11,13,15(20),16,18-decaen-3-yl]acetic acid] | – | 11
6 | Cc1c([C@H](OC(C)(C)C)C(=O)O)c2n3cc(nc3c1C)-c1cccc(c1)-c1c(F)cc(F)cc1O[C@@H](C)CCCCOC1(C)CCN2CC1 [Example 44, (2S)-2-(tert-butoxy)-2-[(22S)-16,18-difluoro-4,5,22,28-tetramethyl-21,27-dioxa-1,7,34-triazahexacyclo[26.2.2.1^6,^9.1^10,^14.0^2,^7.0^15,^20]tetratriaconta-2,4,6(34),8,10(33),11,13,15(20),16,18-decaen-3-yl]acetic acid] | – | 331
7 | Cc1c([C@H](OC(C)(C)C)C(=O)O)c2n3cc(nc3c1C)-c1cccc(c1)-c1cc(F)cc(F)c1O[C@@H](C)CCCCOC1(C)CCN2CC1 [Example 45, (2S)-2-(tert-Butoxy)-2-[(22S)-17,19-difluoro-4,5,22,28-tetramethyl-21,27-dioxa-1,7,34-triazahexacyclo[26.2.2.1^6,^9.1^10,^14.0^2,^7.0^15,^20]tetratriaconta-2,4,6(34),8,10(33),11,13,15(20),16,18-decaen-3-yl]acetic acid] | 47 | –
8 | Cc1cc2nc3cn2c(c1[C@H](OC(C)(C)C)C(=O)O)N1CCC(C)(CC1)OCCCC[C@H](C)Oc1ccc(F)c(F)c1-c1cccc-3c1 [Example 46, (2S)-2-(tert-butoxy)-2-[(22S)-16,17-difluoro-4,22,28-trimethyl-21,27-dioxa-1,7,34-triazahexacyclo[26.2.2.1^6,^9.1^10,^14.0^2,^7.0^15,^20]tetratriaconta-2,4,6(34),8,10(33),11,13,15(20),16,18-decaen-3-yl]acetic acid] | 4 | –
9 | Cc1c([C@H](OC(C)(C)C)C(=O)O)c2n3cc(nc3c1C)-c1cccc(c1)-c1c(ccc(F)c1F)O[C@@H](C)CCCCOC1(C)CCN2CC1 [Example 47, (2S)-2-(tert-Butoxy)-2-[(22S)-16,17-difluoro-4,5,22,28-tetramethyl-21,27-dioxa-1,7,34-triazahexacyclo[26.2.2.1^6,^9.1^10,^14.0^2,^7.0^15,^20]tetratriaconta-2,4,6(34),8,10(33),11,13,15(20),16,18-decaen-3-yl]acetic acid] | 7 | –
10 | C=C(C)c1c(C)c([C@H](OC(C)(C)C)C(=O)O)c2n3cc(nc13)-c1cccc(c1)-c1cc(F)ccc1O[C@@H](C)CCCCOC1(C)CCN2CC1 [Example 48, (2S)-2-(tert-Butoxy)-2-[(22S)-17-fluoro-4,22,28-trimethyl-5-(prop-1-en-2-yl)-21,27-dioxa-1,7,34-triazahexacyclo[26.2.2.1^6,^9.1^10,^14.0^2,^7.0^15,^20]tetratriaconta-2,4,6(34),8,10(33),11,13,15(20),16,18-decaen-3-yl]acetic acid] | 24 | –
11 | Cc1c([C@H](OC(C)(C)C)C(=O)O)c2n3cc(nc3c1C(C)O)-c1cccc(c1)-c1c(ccc(F)c1F)O[C@@H](C)CCCCOC1(C)CCN2CC1 (stereo partly drawn) [Example 49, (2S)-2-(tert-Butoxy)-2-[(22S)-16,17-difluoro-5-(1-hydroxyethyl)-4,22,28-trimethyl-21,27-dioxa-1,7,34-triazahexacyclo[26.2.2.1^6,^9.1^10,^14.0^2,^7.0^15,^20]tetratriaconta-2,4,6(34),8,10(33),11,13,15(20),16,18-decaen-3-yl]acetic acid] | – | 2
12 | Cc1c([C@H](OC(C)(C)C)C(=O)O)c2n3cc(nc3c1C(C)O)-c1cccc(c1)-c1c(ccc(F)c1F)O[C@@H](C)CCCCOC1(C)CCN2CC1 (stereo partly drawn) [Example 50, (2S)-2-(tert-Butoxy)-2-[(22S)-16,17-difluoro-5-(1-hydroxyethyl)-4,22,28-trimethyl-21,27-dioxa-1,7,34-triazahexacyclo[26.2.2.1^6,^9.1^10,^14.0^2,^7.0^15,^20]tetratriaconta-2,4,6(34),8,10(33),11,13,15(20),16,18-decaen-3-yl]acetic acid] | – | 10
13 | Cc1c([C@H](OC(C)(C)C)C(=O)O)c2n3cc(nc3c1CO)-c1cccc(c1)-c1cc(F)ccc1O[C@@H](C)CCCCOC1(C)CCN2CC1 [Example 53, (2S)-2-(tert-Butoxy)-2-[(22S)-17-fluoro-5-(hydroxymethyl)-4,22,28-trimethyl-21,27-dioxa-1,7,34-triazahexacyclo[26.2.2.1^6,^9.1^10,^14.0^2,^7.0^15,^20]tetratriaconta-2,4,6(34),8,10(33),11,13,15(20),16,18-decaen-3-yl]acetic acid] | 8 | –
14 | Cc1c([C@H](OC(C)(C)C)C(=O)O)c2n3cc(nc3c1CO)-c1cccc(c1)-c1c(ccc(F)c1F)O[C@@H](C)CCCCOC1(C)CCN2CC1 [Example 54, (2S)-2-(tert-Butoxy)-2-[(22S)-16,17-difluoro-5-(hydroxymethyl)-4,22,28-trimethyl-21,27-dioxa-1,7,34-triazahexacyclo[26.2.2.1^6,^9.1^10,^14.0^2,^7.0^15,^20]tetratriaconta-2,4,6(34),8,10(33),11,13,15(20),16,18-decaen-3-yl]acetic acid] | 4 | –
